Results from article PMC6263361 (Molecules, 2011).
Where two headings read alike, the source gives them in different places.

Tests used:
GST-E2F-4 = biological target: T1, GST-E2F-4 (Homo sapiens, UniProt Q16254); experiment: SPR interaction analysis with immobilized recombinant GST-E2F-4; type: binding; conditions: for affinity for E2F-4, fold weaker than that of etoposide: relative to etoposide
T1 construct: The 1239-bp cDNA fragment of E2F-4 was amplified from I.M.A.G.E cDNA clone; made in house; host or cells: E. coli BL21(DE3)pLysS
T1 sequence (Q16254 whole entry, the tested form may be a part): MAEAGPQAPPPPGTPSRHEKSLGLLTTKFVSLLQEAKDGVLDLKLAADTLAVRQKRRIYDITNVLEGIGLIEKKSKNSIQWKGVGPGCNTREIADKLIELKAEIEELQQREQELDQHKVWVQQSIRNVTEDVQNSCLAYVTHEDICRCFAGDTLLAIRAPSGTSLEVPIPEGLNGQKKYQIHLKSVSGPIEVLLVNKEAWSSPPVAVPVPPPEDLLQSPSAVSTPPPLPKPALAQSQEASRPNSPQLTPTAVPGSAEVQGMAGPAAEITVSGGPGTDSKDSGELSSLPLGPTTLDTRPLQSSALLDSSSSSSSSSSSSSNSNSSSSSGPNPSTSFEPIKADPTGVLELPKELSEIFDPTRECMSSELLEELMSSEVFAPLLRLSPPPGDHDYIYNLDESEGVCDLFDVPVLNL
From the text: (§1) The gene encoding E2F-4 protein was engineered into an E. coli expression system as a GST fusion protein (GST-E2F-4) and purified by affinity interaction using glutathione Sepharose beads. The GST-E2F-4 was immobilized on a CM5 sensor chip using the same procedure as described for the synthetic ETBP.
The 1239-bp cDNA fragment of E2F-4 was amplified from I.M.A.G.E cDNA clone (clone ID CL0B005ZB12, Invitrogen) by PCR with the primers 5’-[…]-3’ (up) and 5’-[…]-3’ (down) and subcloned into pGEM-T vector (Promega). Following purification and digestion with EcoRI and XhoI, the cDNA fragment was subcloned into the expression vector pET28a(+) (Novagen). The construct was transformed into E. coli BL21(DE3)pLysS (Novagen). Heterologous gene expression was induced by addition of 0.1 mM isopropyl β-D-1-thiogaractopyranoside (IPTG). The culture was continued at 37 °C with vigorous shaking for 1 h. The cells were then harvested and suspended in binding buffer (0.5 M NaCl, 5 mM 2-mercaptoethanol in 50 mM sodium phosphate, pH 7.5). Following sonication and centrifugation the soluble fraction was obtained and purified using the FPLC instrument and GSTrap column (1 mL, GE Healthcare) and then subjected to kinetic analysis by SPR. The purified GST-E2F-4 in resulting fraction was detected by a SDS-PAGE followed by CBB staining or Western blotting using rabbit anti-GST (primary) and anti-rabbit IgG-AP conjugate (secondary) antibodies (Sigma-Aldrich) with BCIP/NBT solution.
(§2) Analysis of binding between etopside and synthetic ETBP or recombinant GST-E2F-4 was performed with a surface plasmon resonance (SPR) biosensor (Biacore®3000, GE Healthcare). The synthetic ETBP or protein dissolved in each buffer (ETBP16: 10 mM acetate buffer, pH 4.0−10% DMSO; ETBP10, HG102: 10 mM carbonate buffer, pH 8.5; protein: 10 mM acetate buffer, pH 4.0) was injected over a CM5 sensor chip at 10 µL/min and captured on the carboxymethyl dextran matrix via an amine coupling reaction. The surface was activated by injecting a solution containing 200 mM EDC and 50 mM NHS for 14 min. The protein or peptide was injected and the surface was then blocked by injecting 1 M ethanolamine at pH 8.5 for 14 min. […] BIAevaluation 3.2 software (GE Healthcare) was used to determine the kinetic parameters.

[1] = tested on: control peptide HG102 (SGVMLGDPN); experiment: SPR interaction analysis between etoposide and control peptide HG102; type: binding; conditions: etoposide 3.2-80 µM injected
Experimental: Synthetic ETBP16 or ETBP10 was immobilized on a CM5 censor chip by an amine coupling reaction. […] By contrast, no response was observed against a control peptide HG102 ([…]).
Analysis of binding between etopside and synthetic ETBP or recombinant GST-E2F-4 was performed with a surface plasmon resonance (SPR) biosensor (Biacore®3000, GE Healthcare). The synthetic ETBP or protein dissolved in each buffer (ETBP16: 10 mM acetate buffer, pH 4.0−10% DMSO; ETBP10, HG102: 10 mM carbonate buffer, pH 8.5; protein: 10 mM acetate buffer, pH 4.0) was injected over a CM5 sensor chip at 10 µL/min and captured on the carboxymethyl dextran matrix via an amine coupling reaction. The surface was activated by injecting a solution containing 200 mM EDC and 50 mM NHS for 14 min. The protein or peptide was injected and the surface was then blocked by injecting 1 M ethanolamine at pH 8.5 for 14 min. This reaction immobilized 1279 resonance units (RU) of ETBP16, 3400 RU of ETBP10, 350 RU of HG102, 11421 RU of GST-E2F-4, 4388 RU of GST, and 7500 RU of top II (usb). […] BIAevaluation 3.2 software (GE Healthcare) was used to determine the kinetic parameters.

GST = GST (Schistosoma japonicum, UniProt P08515); experiment: SPR interaction analysis with immobilized GST tag alone; type: binding; conditions: etoposide 2.5-100 µM injected
Sequence of GST (P08515 whole entry): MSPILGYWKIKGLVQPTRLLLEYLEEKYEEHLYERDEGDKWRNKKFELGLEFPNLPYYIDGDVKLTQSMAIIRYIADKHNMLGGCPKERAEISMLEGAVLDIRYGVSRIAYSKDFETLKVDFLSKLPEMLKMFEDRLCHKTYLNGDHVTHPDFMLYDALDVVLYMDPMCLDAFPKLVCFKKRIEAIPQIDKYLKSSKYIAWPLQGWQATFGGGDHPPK
Experimental: as §1, §2

CHO-K1 cells = experiment: MTS assay of cell proliferation; type: cell-based; conditions: concentrations used in the reporter assay; data not shown
E2F-4/DP1 = biological target: T2, E2F-4/DP1 (Homo sapiens, UniProt Q16254); experiment: Luciferase reporter gene assay, E2F-4/DP1 expressing CHO-K1 cells; type: cell-based; conditions: 15 h incubation, read-out: IC50 of reporter gene transcription, E2F-4/DP1
T2 construct: expressed in transfected cells; host or cells: CHO-K1
T2 sequence (Q16254 whole entry, species assumed): as the sequence (Q16254 whole entry, the tested form may be a part) above
From the text: (§3) E2F-4 functions as a transcription factor, forming a heterodimeric complex with DP via the DP binding domain (G86-I181) (Figure 9).
(§4) The vectors (pCMV-E2F-4, pCMV-DP1, pCMV-DP2) for the luciferase reporter gene assay were kindly provided by Dr. Junji Magae (Institute of Research and Innovation (IRI), Kashiwa, Chiba, Japan) The reporter gene plasmid (pGL3-GC box) was constructed by insertion of double stranded DNA with XhoI and HindIII site, which was generated by an annealing of 60 pmol of oligonucleotides 5’-[…]-3’ and 5’-[…]-3’ into pGL3 vector (Promega). Transfection was then performed using Lipofectamine 2000 (Invitrogen) in a 96-well format according to the manufacturer’s instructions (Invitrogen).

E2F-4/DP2 = biological target: T3, E2F-4/DP2 (Homo sapiens, UniProt Q16254); experiment: Luciferase reporter gene assay, E2F-4/DP2 expressing CHO-K1 cells; type: cell-based; conditions: 15 h incubation, read-out: IC50 of reporter gene transcription, E2F-4/DP2
T3 construct: expressed in transfected cells; host or cells: CHO-K1
T3 sequence (Q16254 whole entry, species assumed): as the sequence (Q16254 whole entry, the tested form may be a part) above
From the text: as §3, §4

[2] = SPR, read-out: KD between GST-E2F-4 and each compound

COc1cc([C@@H]2c3cc4c(cc3[C@@H](O[C@@H]3O[C@@H]5CO[C@@H](C)O[C@H]5[C@H](O)[C@H]3O)[C@H]3COC(=O)[C@H]23)OCO4)cc(OC)c1O [Etoposide]
Kd (GST-E2F-4; [2]): 75 µM
SPR response against control peptide HG102 [1]: no response
SPR response against GST tag alone (GST): did not show any response
effect in terms of cell growth in MTS assay (CHO-K1 cells): no effect
IC50 (E2F-4/DP1): 1.56 µM
IC50 (E2F-4/DP2): 1.16 µM

COc1cc([C@@H]2c3cc4c(cc3[C@H](O)[C@H]3COC(=O)[C@H]23)OCO4)cc(OC)c1OC [Podophyllotoxin, podophyllotoxin]
Kd (GST-E2F-4): 308 µM
affinity for E2F-4, fold weaker than that of etoposide (GST-E2F-4; SPR): approximately four

COc1cc(C(=O)O)cc(OC)c1O [Syringic acid]
SPR response against GST-E2F-4 (GST-E2F-4; in the concentration range tested): no response

COc1cc([C@@H]2c3cc4c(cc3[C@@H](O[C@@H]3O[C@@H]5CO[C@@H](c6cccs6)O[C@H]5[C@H](O)[C@H]3O)[C@H]3COC(=O)[C@H]23)OCO4)cc(OC)c1O [Teniposide, teniposide]
affinity for E2F-4, fold weaker than that of etoposide (GST-E2F-4; SPR): nine
Kd (GST-E2F-4; [2]): 654 µM
